{"source": "patent US6573060B1", "about": "“Methods and compositions for targeting DNA metabolic processes using aminoglycoside derivatives” (University of Virginia Patent Foundation, priority 1997, dated 2003)", "key": {"DNA-dependent ATPase A": {"target": "T1, DNA-dependent ATPase A (Bos taurus, UniProt Q9TTA5)", "T1 sequence (Q9TTA5 222-940)": "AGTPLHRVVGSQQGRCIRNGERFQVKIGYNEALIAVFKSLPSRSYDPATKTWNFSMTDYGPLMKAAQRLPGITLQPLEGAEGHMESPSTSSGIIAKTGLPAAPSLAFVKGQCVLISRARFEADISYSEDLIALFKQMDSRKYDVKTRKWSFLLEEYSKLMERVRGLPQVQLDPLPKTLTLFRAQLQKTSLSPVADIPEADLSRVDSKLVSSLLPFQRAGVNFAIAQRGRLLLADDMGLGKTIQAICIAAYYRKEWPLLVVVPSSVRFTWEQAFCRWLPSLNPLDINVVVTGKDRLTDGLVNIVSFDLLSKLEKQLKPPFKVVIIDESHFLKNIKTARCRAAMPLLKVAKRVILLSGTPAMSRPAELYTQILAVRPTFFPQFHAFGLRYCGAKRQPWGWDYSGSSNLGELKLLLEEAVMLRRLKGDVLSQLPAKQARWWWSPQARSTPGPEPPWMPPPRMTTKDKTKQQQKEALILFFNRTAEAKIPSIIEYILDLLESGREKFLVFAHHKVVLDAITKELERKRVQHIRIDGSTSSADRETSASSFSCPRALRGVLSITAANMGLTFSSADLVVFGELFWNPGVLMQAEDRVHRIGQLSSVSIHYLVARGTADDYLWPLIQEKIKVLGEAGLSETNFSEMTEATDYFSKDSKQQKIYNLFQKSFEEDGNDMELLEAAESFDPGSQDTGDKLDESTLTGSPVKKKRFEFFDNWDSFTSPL", "assay": "Inhibition of ATP hydrolysis by DNA-dependent ATPase A (overexpressed 82 kDa ADAAD)", "type": "biochemical, bovine", "settings": "Ki, Table 4; determined in the presence of effector", "method": "Enzyme (0.2 units (one unit is the amount of enzyme required to hydrolyze 1 μmole of adenosine triphosphate per min)) was mixed with 50 mM Tris-SO4, pH 7.5, 1 mM MgCl2, 5 mM β-mercaptoethanol, 0.5 mg/mL bovine serum albumin, 2 mM phosphoenol pyruvate, 0.03 mg/mL pyruvate kinase, 10 nM of stem-loop DNA, and 2 mM adenosine triphosphate in a total volume of 100 μL. The reaction was typically incubated at 37° C. for 10-60 minutes. At the end of the designated time, 225 μL of 10% sodium dodecyl sulfate and 350 μL of water were added to stop the reaction. Color development requires the addition of two reagents: 180 μL of reagent A (prepared by mixing equal volumes of 60 to 70% perchloric acid and 5% ammonium molybdate in water) and 45 μL of reagent B (0.2 g 1:2:4 aminonaphthol sulfonic acid, 12.0 g sodium metabisulfite, and 2.4 g sodium sulfite dissolved in 100 mL of water) was added. The reaction was incubated at room temperature for 10 minutes and the absorbance was read at 720 nm. The color development was time-dependent and therefore samples must be read at exactly 10 minutes.\nEnzyme (0.2 units (one unit is the amount of enzyme required to hydrolyze 1 μmole of adenosine triphosphate per min)) was mixed with 25 mM Tris-acetate pH 7.5, 6 mM Mg(acetate)2, 60 mM KCl, 5 mM β-mercaptoethanol, 3 mM phosphoenol pyruvate, 10 units/mL pyruvate kinase, 10 units/mL lactate dehydrogenase 10 nM DNA, 2 mM adenosine triphosphate, and 0.1 mg/mL NADH in a final volume of 1 mL. The progress of the reaction at 37° C. was monitored at 340 nm using an HP8452 spectrophotometer.\nEnzyme (0.2 U) was mixed with 50 mM Tris-SO4, pH 7.5, 1 mM MgCl2, 5 mM β-mercaptoethanol, 0.5 mg/mL bovine serum albumin, 2 mM phosphoenol pyruvate, 0.03 mg/mL pyruvate kinase, 10 nM of stem-loop DNA, and 2 mM adenosine triphosphate in a total volume of 50 μL. Three (3) μCi of [^32P]-γ-adenosine triphosphate was added to the reaction and typical incubation was for 60 minutes 37° C. EDTA (25 mM) was added to stop the reaction. 10 μL of the reaction was spotted on a poly(ethylenimine)-cellulose plate. The plate was developed using 0.9M LiCl and 7M urea as solvent system. The plate was allowed to dry and autoradiographed either using X-OMAT film or a phosphorimager. […]"}, "DNA-dependent ATPases": {"test_system": "DNA-dependent ATPases", "assay": "Effect of millimolar neomycin on DNA-dependent ATPases", "type": "biochemical", "settings": "millimolar concentrations", "method": "(§1) A number of different ATPases, both DNA-dependent and DNA-independent, were analyzed for their behavior with respect to these drugs.\nThis inhibition is directly attributable to the positive charge that the aminoglycosides carry and thus the sequestering of the DNA (negatively charged) away from the enzyme (the binding of kanamycin directly to DNA has been confirmed—data not shown). In addition, the phosphoneomycin has differing effects on DNA-dependent ATPases from various sources and of various function."}, "MDA-MB-231": {"test_system": "MDA-MB-231", "assay": "MTS cell survival assay, MDA-MB-231 breast cancer cells", "type": "cell-based", "settings": "MDA-MB-231, FIG. 9", "method": "(§2) The effect of phosphoaminoglycosides on tumor cell growth was tested in cell culture inhibition studies. 5000 cells were plated in a total volume of 50 μl in a 96 well titer plate. After 24 hours, 50 μl of media and drugs, to the required final concentration, were added. The plates were incubated at 37° C. for 5 days. On the 5th day, the fraction of surviving cells was estimated using a non-radioactive cell proliferation assay (CellTiter 96 AQueous Cell Proliferation Assay from Promega).\n(§3) This is a colorimetric assay that determines the number of viable cells. The assay measures the bioreduction of a tetrazolium compound (3-(4,5-dimethylthiazol-2-yl)-5-(3-carboxymethoxyphenyl)-2-(4-sulfophenyl)-2H-tetrazolium, inner salt; MTS), via an electron coupling reagent (phenazine methosulfate; PMS), to formazan, which is soluble in the tissue culture medium. The absorbance of formazan at 490 nm can be measured from the 96 well assay plate without additional processing. The conversion of MTS into the aqueous soluble formazan is accomplished by dehydrogenase enzymes found in metabolically active cells. The quantity of formazan product as measured by the amount of 490 nm absorbance is directly proportional to the number of living cells in culture. […] 20 μl of PMS/MTS solution was added to the cells and the plates were incubated at 37° C. for 2 hours before measuring the absorbance at 490 nm. […]"}, "MCF-7": {"test_system": "MCF-7", "assay": "MTS cell survival assay, MCF-7 breast cancer cells", "type": "cell-based", "settings": "MCF-7, FIG. 9", "method": "as §2, §3"}, "PC3 cell line": {"test_system": "PC3 cell line", "assay": "MTS cell survival assay, PC3 prostate cancer cells", "type": "cell-based, human", "method": "as §2\nThis is a colorimetric assay that determines the number of viable cells. The assay measures the bioreduction of a tetrazolium compound (3-(4,5-dimethylthiazol-2-yl)-5-(3-carboxymethoxyphenyl)-2-(4-sulfophenyl)-2H-tetrazolium, inner salt; MTS), via an electron coupling reagent (phenazine methosulfate; PMS), to formazan, which is soluble in the tissue culture medium. The absorbance of formazan at 490 nm can be measured from the 96 well assay plate without additional processing. The conversion of MTS into the aqueous soluble formazan is accomplished by dehydrogenase enzymes found in metabolically active cells. The quantity of formazan product as measured by the amount of 490 nm absorbance is directly proportional to the number of living cells in culture. 100 μl of the PMS reagent (Promega) was mixed with 2.0 ml of MTS solution (Promega). 20 μl of PMS/MTS solution was added to the cells and the plates were incubated at 37° C. for 2 hours before measuring the absorbance at 490 nm.\nIn an initial experiment, four drugs (A-kanamycin, B-phosphokanamycin, C-neomycin, and D-phosphoneomycin) were added to prostate cancer cell cultures in a blind fashion. Two prostate cancer cell lines were incubated with each of the drugs and assayed for cell survivability using the MTS assay (Promega).\n5000 cells were grown overnight in media and each respective drug (A-kanamycin, B-phosphokanamycin, C-neomycin, and D-phosphoneomycin) was added on the second day. […] Each point is the average of readings from three wells."}, "DNA-independent ATPases": {"test_system": "DNA-independent ATPases", "assay": "Effect on DNA-independent ATPases", "type": "biochemical", "method": "as §1"}}}
{"molecule": "NCC[C@H](O)C(=O)N[C@@H]1C[C@H](N)[C@@H](O[C@H]2O[C@H](CN)[C@@H](O)[C@H](OP(=O)(O)O)[C@H]2O)[C@H](O)[C@H]1O[C@H]1O[C@H](CO)[C@@H](O)[C@H](N)[C@H]1O", "note": "[3′ phosphorylated amikacin]", "values": [{"measurement": "Ki", "setting": "DNA-dependent ATPase A", "value": 167, "unit": "nM"}]}
{"molecule": "CN[C@@H]1[C@@H](O)[C@@H](O[C@@H]2[C@@H](O)[C@H](O[C@H]3O[C@H](CO)[C@@H](O)[C@H](OP(=O)(O)O)[C@H]3N)[C@@H](N)C[C@H]2N)OC[C@H]1O", "note": "[3′ phosphorylated gentamicin]", "values": [{"measurement": "Ki", "setting": "DNA-dependent ATPase A", "value": 219, "unit": "nM"}]}
{"molecule": "CN[C@@H]1[C@@H](O)[C@@H](O[C@@H]2[C@@H](O)[C@H](O[C@H]3O[C@H]([C@@H](C)O)[C@@H](O)[C@H](OP(=O)(O)O)[C@H]3N)[C@@H](N)C[C@H]2N)OC[C@]1(C)O", "note": "[phosphogeneticin, 3′-phosphogeneticin]", "values": [{"measurement": "Ki", "setting": "DNA-dependent ATPase A", "value": 191, "unit": "nM"}]}
{"molecule": "Neomycin B & C (^˜15% Neomycin C) [reference compound]", "values": [{"measurement": "inhibition of all DNA-dependent ATPases (in words)", "setting": "DNA-dependent ATPases", "value": "some inhibition"}, {"measurement": "effect on cell growth (in words)", "setting": "MDA-MB-231", "value": "no effect"}, {"measurement": "effect on cell growth (in words)", "setting": "MCF-7", "value": "no effect"}, {"measurement": "effect on PC3 cells (in words)", "setting": "PC3 cell line; FIG. 8, day five", "value": "neither kanamycin nor neomycin had any effect"}, {"measurement": "effect on PC3 cell survival (in words)", "setting": "PC3 cell line; concentrations in excess of 1 mM", "value": "increased cell survival"}, {"measurement": "effect on DNA-independent ATPases (in words)", "setting": "DNA-independent ATPases", "value": "neither affected"}]}
